Experimental data as given in patent publication US20180000085A1, “USE OF PICOLINAMIDE COMPOUNDS WITH FUNGICIDAL ACTIVITY” (DOW AGROSCIENCES LLC, priority 2014, published 2018).

Key:
Zymoseptoria tritici = test: Leaf blotch of wheat (SEPTTR) disease control on wheat seedlings; format: in vivo; parameters: key to SEPTTR 1DP, HV activity at 100 ppm (% control rating) / SEPTTR 3DC, HV activity at 100 ppm (% control rating) / SEPTTR disease control, 1DP / SEPTTR disease control, 3DC / SEPTTR 1DP disease control rating, HV activity / SEPTTR 3DC disease control rating, HV activity / SEPTTR 3DC, LV activity at 125.1 g/H (% Control rating) / SEPTTR 1DP, LV activity at 125.1 g/H (% Control rating) / SEPTTR 1DP disease control rating, LV activity at 125.1 g/H / SEPTTR 3DC disease control rating, LV activity at 125.1 g/H / SEPTTR 3DC disease control rating, HV activity at 100 ppm / SEPTTR 1DP disease control rating, HV activity at 100 ppm / HV activity at 100 ppm SEPTTR 3DC (disease control rating) / HV activity at 100 ppm SEPTTR 1DP (disease control rating) / LV activity at 125.1 g/H SEPTTR 1DP (disease control rating) / LV activity at 125.1 g/H SEPTTR 3DC (disease control rating): A: > 80; B: ≤ 80; C: Not Tested; D: No Activity Observed in the Reported Assay; conditions: for SEPTTR 1DP disease control rating, HV activity / SEPTTR 3DC disease control rating, HV activity: HV application at 100 ppm; for SEPTTR 1DP disease control rating, LV activity at 125.1 g/H / SEPTTR 1DP disease control rating, HV activity at 100 ppm: 1 day protectant; for SEPTTR 3DC disease control rating, LV activity at 125.1 g/H / SEPTTR 3DC disease control rating, HV activity at 100 ppm: 3 day curative
Puccinia triticina = test: Wheat brown rust (PUCCRT) disease control on wheat seedlings; format: in vivo; parameters: key to PUCCRT 3DC, HV activity at 100 ppm (% control rating) / PUCCRT disease control, 3DC / PUCCRT 1DP disease control rating, HV activity / PUCCRT 3DC disease control rating, HV activity / PUCCRT 3DC, LV activity at 125.1 g/H (% Control rating) / PUCCRT 1DP, LV activity at 125.1 g/H (% Control rating) / PUCCRT 3DC disease control rating, LV activity at 125.1 g/H / PUCCRT 1DP disease control rating, LV activity at 125.1 g/H / PUCCRT 3DC disease control rating, HV activity at 100 ppm / PUCCRT 1DP disease control rating, HV activity at 100 ppm / HV activity at 100 ppm PUCCRT 3DC (disease control rating) / LV activity at 125.1 g/H PUCCRT 1DP (disease control rating) / LV activity at 125.1 g/H PUCCRT 3DC (disease control rating): A: > 80; B: ≤ 80; C: Not Tested; D: No Activity Observed in the Reported Assay; conditions: for PUCCRT 1DP disease control rating, HV activity / PUCCRT 3DC disease control rating, HV activity: HV application at 100 ppm; for PUCCRT 1DP disease control rating, LV activity at 125.1 g/H / PUCCRT 1DP disease control rating, HV activity at 100 ppm: 1 day protectant; for PUCCRT 3DC disease control rating, LV activity at 125.1 g/H / PUCCRT 3DC disease control rating, HV activity at 100 ppm: 3 day curative
[1] = low volume application, 125.1 g/H, 1 Day Protectant
[2] = low volume application, 125.1 g/H, 3 Day Curative
[3] = 1 Day Protectant, wheat leaf blotch
[4] = 3 Day Curative, wheat leaf blotch
[5] = 1 Day Protectant, wheat brown rust
[6] = 3 Day Curative, wheat brown rust
[7] = HV activity at 100 ppm, 1 Day Protectant, wheat
[8] = HV activity at 100 ppm, 3 Day Curative, wheat
[9] = high volume application, 100 ppm, 1DP
[10] = high volume application, 100 ppm, 3DC
[11] = low volume application, 125.1 g/H
[12] = high volume application, 100 ppm

Compound | SEPTTR 1DP, LV activity at 125.1 g/H (% Control rating) (Zymoseptoria tritici; [1]) | SEPTTR 3DC, LV activity at 125.1 g/H (% Control rating) (Zymoseptoria tritici; [2]) | PUCCRT 1DP, LV activity at 125.1 g/H (% Control rating) (Puccinia triticina; [1]) | PUCCRT 3DC, LV activity at 125.1 g/H (% Control rating) (Puccinia triticina; [2]) | SEPTTR 1DP disease control rating, HV activity (Zymoseptoria tritici; [3]) | SEPTTR 3DC disease control rating, HV activity (Zymoseptoria tritici; [4]) | PUCCRT 1DP disease control rating, HV activity (Puccinia triticina; [5]) | PUCCRT 3DC disease control rating, HV activity (Puccinia triticina; [6]) | other results
CCC(CC)[C@@H](Oc1cc(F)ccc1F)[C@H](C)OC(=O)[C@H](C)NC(=O)c1nccc(OC)c1OC(C)=O [Cmpd 602] | A (> 80) | A (> 80) | A (> 80) | A (> 80) | – | – | – | – | –
COc1ccnc(C(=O)N[C@@H](C)C(=O)O[C@@H](C)[C@H](Oc2ccc(Cl)cc2Cl)C2CCCC2)c1O [Cmpd 346] | – | – | – | – | D | B (≤ 80) | B (≤ 80) | D | –
CCCOC(CC)C(Oc1ccccc1)C(C)OC(=O)C(CC(C)C)NC(=O)c1nccc(OC)c1O (centres unmarked) [Cmpd 291] | – | – | – | – | D | D | B (≤ 80) | D | SEPTTR disease control, 1DP (Zymoseptoria tritici; [7]): D; SEPTTR disease control, 3DC (Zymoseptoria tritici; [8]): D; SEPTTR 1DP, HV activity at 100 ppm (% control rating) (Zymoseptoria tritici; [9]): D; SEPTTR 3DC, HV activity at 100 ppm (% control rating) (Zymoseptoria tritici; [10]): D; PUCCRT disease control, 1DP (Puccinia triticina; [7]): B (≤ 80); PUCCRT disease control, 3DC (Puccinia triticina; [8]): D; PUCCRT 1DP, HV activity at 100 ppm (% control rating) (Puccinia triticina; [9]): B (≤ 80); PUCCRT 3DC, HV activity at 100 ppm (% control rating) (Puccinia triticina; [10]): D
CCC[C@@H](Oc1ccc(Cl)c(OC)c1)[C@H](C)OC(=O)[C@H](C)NC(=O)c1nccc(OC)c1OC(C)=O [Cmpd 1054] | – | – | – | – | – | – | – | – | LV activity at 125.1 g/H SEPTTR 1DP (disease control rating) (Zymoseptoria tritici; low volume application, 125.1 g/H, 1 Day Protectant, wheat leaf blotch): B (≤ 80); LV activity at 125.1 g/H SEPTTR 3DC (disease control rating) (Zymoseptoria tritici; low volume application, 125.1 g/H, 3 Day Curative, wheat leaf blotch): B (≤ 80); LV activity at 125.1 g/H PUCCRT 1DP (disease control rating) (Puccinia triticina; low volume application, 125.1 g/H, 1 Day Protectant, wheat brown rust): A (> 80); LV activity at 125.1 g/H PUCCRT 3DC (disease control rating) (Puccinia triticina; low volume application, 125.1 g/H, 3 Day Curative, wheat brown rust): A (> 80)
CC[C@H](Cc1ccc(OC)cc1)[C@@H](Oc1ccccc1)[C@H](C)OC(=O)[C@H](C)NC(=O)c1nccc(OC)c1OC(=O)C(C)C [Cmpd 472] | A (> 80) | A (> 80) | A (> 80) | B (≤ 80) | – | – | – | – | –
COc1ccnc(C(=O)N[C@@H](C)C(=O)O[C@@H](C)[C@H](OC)c2ccccc2)c1OC(C)=O [Cmpd 887] | – | – | – | – | – | – | – | – | SEPTTR 1DP disease control rating, LV activity at 125.1 g/H (Zymoseptoria tritici; [11]): D; SEPTTR 3DC disease control rating, LV activity at 125.1 g/H (Zymoseptoria tritici; [11]): A (> 80); PUCCRT 1DP disease control rating, LV activity at 125.1 g/H (Puccinia triticina; [11]): D; PUCCRT 3DC disease control rating, LV activity at 125.1 g/H (Puccinia triticina; [11]): A (> 80)
CCC(C)C(NC(=O)c1nccc(OC)c1O)C(=O)OC(C)C(Oc1ccc(C(F)(F)F)cc1)C(C)C (centres unmarked) [Cmpd 396] | – | – | – | – | B (≤ 80) | B (≤ 80) | B (≤ 80) | D | –
COc1ccnc(C(=O)NC(C)C(=O)OC(C)COCC(C)C)c1OCOC(C)=O (centres unmarked) [Cmpd 533] | D | A (> 80) | D | A (> 80) | – | – | – | – | –
COc1ccnc(C(=O)N[C@@H](C)C(=O)O[C@@H](C)[C@H](Oc2ccc(Cl)cc2)C(C)C)c1OCOC(=O)C(C)C [Cmpd 573] | A (> 80) | A (> 80) | A (> 80) | A (> 80) | – | – | – | – | –
COc1ccnc(C(=O)N[C@@H](C)C(=O)O[C@@H](C)[C@H](Oc2cccc(F)c2)c2cccc(-c3ccccc3)c2)c1O [Cmpd 814] | – | – | – | – | – | – | – | – | SEPTTR 1DP disease control rating, HV activity at 100 ppm (Zymoseptoria tritici; [12]): D; SEPTTR 3DC disease control rating, HV activity at 100 ppm (Zymoseptoria tritici; [12]): D; PUCCRT 1DP disease control rating, HV activity at 100 ppm (Puccinia triticina; [12]): B (≤ 80); PUCCRT 3DC disease control rating, HV activity at 100 ppm (Puccinia triticina; [12]): D
CCC(C)C(Oc1ccccc1)C(C)OC(=O)C(C)NC(=O)c1nccc(OC)c1O (centres unmarked) [Cmpd 440] | – | – | – | – | A (> 80) | A (> 80) | A (> 80) | A (> 80) | –
C=CC[C@@H](OCc1ccccc1)[C@H](C)OC(=O)[C@H](C)NC(=O)c1nccc(OC)c1OCOC(=O)COCC [Cmpd 517] | A (> 80) | D | A (> 80) | A (> 80) | – | – | – | – | –
CCC(CC)C(Oc1ccc(Cl)cc1Cl)C(C)OC(=O)C(CC(C)C)NC(=O)c1nccc(OC)c1OCOC(C)=O (centres unmarked) [Cmpd 684] | – | – | – | – | – | – | – | – | SEPTTR 1DP disease control rating, LV activity at 125.1 g/H (Zymoseptoria tritici; [11]): D; SEPTTR 3DC disease control rating, LV activity at 125.1 g/H (Zymoseptoria tritici; [11]): D; PUCCRT 1DP disease control rating, LV activity at 125.1 g/H (Puccinia triticina; [11]): B (≤ 80); PUCCRT 3DC disease control rating, LV activity at 125.1 g/H (Puccinia triticina; [11]): D
CCC(CC)C(Oc1cc(F)cc(Cl)c1)C(C)OC(=O)C(CC(C)C)NC(=O)c1nccc(OC)c1O (centres unmarked) [Cmpd 429] | – | – | – | – | B (≤ 80) | D | B (≤ 80) | D | –
CCC(CC)C(Oc1cc(F)cc(Cl)c1)C(C)OC(=O)C(C)NC(=O)c1nccc(OC)c1O (centres unmarked) [Cmpd 423] | – | – | – | – | A (> 80) | A (> 80) | A (> 80) | B (≤ 80) | –
C=CC[C@@H](Oc1cccc(Cl)c1)[C@H](C)OC(=O)[C@H](C)NC(=O)c1nccc(OC)c1O [Cmpd 1021] | – | – | – | – | – | – | – | – | SEPTTR 1DP disease control rating, HV activity at 100 ppm (Zymoseptoria tritici; [12]): A (> 80); SEPTTR 3DC disease control rating, HV activity at 100 ppm (Zymoseptoria tritici; [12]): A (> 80); PUCCRT 1DP disease control rating, HV activity at 100 ppm (Puccinia triticina; [12]): A (> 80); PUCCRT 3DC disease control rating, HV activity at 100 ppm (Puccinia triticina; [12]): A (> 80)
CCC(CC)C(Oc1ccc(Cl)cc1)C(C)OC(=O)C(CC(C)C)NC(=O)c1nccc(OC)c1OCOC(C)=O (centres unmarked) [Cmpd 681] | – | – | – | – | – | – | – | – | SEPTTR 1DP disease control rating, LV activity at 125.1 g/H (Zymoseptoria tritici; [11]): D; SEPTTR 3DC disease control rating, LV activity at 125.1 g/H (Zymoseptoria tritici; [11]): B (≤ 80); PUCCRT 1DP disease control rating, LV activity at 125.1 g/H (Puccinia triticina; [11]): D; PUCCRT 3DC disease control rating, LV activity at 125.1 g/H (Puccinia triticina; [11]): D
COc1ccnc(C(=O)N[C@@H](C)C(=O)O[C@@H](C)[C@H](Oc2ccc(Cl)cc2Cl)c2ccccc2)c1OCOC(C)=O [Cmpd 634] | A (> 80) | A (> 80) | A (> 80) | B (≤ 80) | – | – | – | – | –
